Consider 7 compounds from ChEMBL document CHEMBL1143262, “1-Oxo-3-substitute-isothiochroman-4-carboxylic acid compounds: synthesis and biological activities of FAS inhibition” (Bioorg Med Chem Lett, 2009).

For data set [1], the target named is Fatty acid synthase (Rattus norvegicus) (UniProt P12785). The data set can be described thus: Inhibition of Sprague-Dawley rat liver fatty acid synthase at 60 umol.
The subject of data set [2] is fatty acid synthase. Nature of the data set: Therapeutic index, ratio of TC50 for HLF to IC50 for Sprague-Dawley rat liver fatty acid synthase. Conditions: human (HLF cells), HLF cells versus rat liver fatty acid synthase.
Data set [3] in a line: Cytotoxicity against HLF by MTT assay. The settings on record: human, HLF cells; read-out: TC50 (the source's name). On the technique in general: Tetrazolium dyes change colour on reduction, which living cells bring about.
Data set [4] addresses Fatty acid synthase (Rattus norvegicus, UniProt P12785). The data set can be described thus: Inhibition of Sprague-Dawley rat liver fatty acid synthase.

Molecules are shown by their SMILES.

Fatty acid synthase, sequence (P12785 whole entry): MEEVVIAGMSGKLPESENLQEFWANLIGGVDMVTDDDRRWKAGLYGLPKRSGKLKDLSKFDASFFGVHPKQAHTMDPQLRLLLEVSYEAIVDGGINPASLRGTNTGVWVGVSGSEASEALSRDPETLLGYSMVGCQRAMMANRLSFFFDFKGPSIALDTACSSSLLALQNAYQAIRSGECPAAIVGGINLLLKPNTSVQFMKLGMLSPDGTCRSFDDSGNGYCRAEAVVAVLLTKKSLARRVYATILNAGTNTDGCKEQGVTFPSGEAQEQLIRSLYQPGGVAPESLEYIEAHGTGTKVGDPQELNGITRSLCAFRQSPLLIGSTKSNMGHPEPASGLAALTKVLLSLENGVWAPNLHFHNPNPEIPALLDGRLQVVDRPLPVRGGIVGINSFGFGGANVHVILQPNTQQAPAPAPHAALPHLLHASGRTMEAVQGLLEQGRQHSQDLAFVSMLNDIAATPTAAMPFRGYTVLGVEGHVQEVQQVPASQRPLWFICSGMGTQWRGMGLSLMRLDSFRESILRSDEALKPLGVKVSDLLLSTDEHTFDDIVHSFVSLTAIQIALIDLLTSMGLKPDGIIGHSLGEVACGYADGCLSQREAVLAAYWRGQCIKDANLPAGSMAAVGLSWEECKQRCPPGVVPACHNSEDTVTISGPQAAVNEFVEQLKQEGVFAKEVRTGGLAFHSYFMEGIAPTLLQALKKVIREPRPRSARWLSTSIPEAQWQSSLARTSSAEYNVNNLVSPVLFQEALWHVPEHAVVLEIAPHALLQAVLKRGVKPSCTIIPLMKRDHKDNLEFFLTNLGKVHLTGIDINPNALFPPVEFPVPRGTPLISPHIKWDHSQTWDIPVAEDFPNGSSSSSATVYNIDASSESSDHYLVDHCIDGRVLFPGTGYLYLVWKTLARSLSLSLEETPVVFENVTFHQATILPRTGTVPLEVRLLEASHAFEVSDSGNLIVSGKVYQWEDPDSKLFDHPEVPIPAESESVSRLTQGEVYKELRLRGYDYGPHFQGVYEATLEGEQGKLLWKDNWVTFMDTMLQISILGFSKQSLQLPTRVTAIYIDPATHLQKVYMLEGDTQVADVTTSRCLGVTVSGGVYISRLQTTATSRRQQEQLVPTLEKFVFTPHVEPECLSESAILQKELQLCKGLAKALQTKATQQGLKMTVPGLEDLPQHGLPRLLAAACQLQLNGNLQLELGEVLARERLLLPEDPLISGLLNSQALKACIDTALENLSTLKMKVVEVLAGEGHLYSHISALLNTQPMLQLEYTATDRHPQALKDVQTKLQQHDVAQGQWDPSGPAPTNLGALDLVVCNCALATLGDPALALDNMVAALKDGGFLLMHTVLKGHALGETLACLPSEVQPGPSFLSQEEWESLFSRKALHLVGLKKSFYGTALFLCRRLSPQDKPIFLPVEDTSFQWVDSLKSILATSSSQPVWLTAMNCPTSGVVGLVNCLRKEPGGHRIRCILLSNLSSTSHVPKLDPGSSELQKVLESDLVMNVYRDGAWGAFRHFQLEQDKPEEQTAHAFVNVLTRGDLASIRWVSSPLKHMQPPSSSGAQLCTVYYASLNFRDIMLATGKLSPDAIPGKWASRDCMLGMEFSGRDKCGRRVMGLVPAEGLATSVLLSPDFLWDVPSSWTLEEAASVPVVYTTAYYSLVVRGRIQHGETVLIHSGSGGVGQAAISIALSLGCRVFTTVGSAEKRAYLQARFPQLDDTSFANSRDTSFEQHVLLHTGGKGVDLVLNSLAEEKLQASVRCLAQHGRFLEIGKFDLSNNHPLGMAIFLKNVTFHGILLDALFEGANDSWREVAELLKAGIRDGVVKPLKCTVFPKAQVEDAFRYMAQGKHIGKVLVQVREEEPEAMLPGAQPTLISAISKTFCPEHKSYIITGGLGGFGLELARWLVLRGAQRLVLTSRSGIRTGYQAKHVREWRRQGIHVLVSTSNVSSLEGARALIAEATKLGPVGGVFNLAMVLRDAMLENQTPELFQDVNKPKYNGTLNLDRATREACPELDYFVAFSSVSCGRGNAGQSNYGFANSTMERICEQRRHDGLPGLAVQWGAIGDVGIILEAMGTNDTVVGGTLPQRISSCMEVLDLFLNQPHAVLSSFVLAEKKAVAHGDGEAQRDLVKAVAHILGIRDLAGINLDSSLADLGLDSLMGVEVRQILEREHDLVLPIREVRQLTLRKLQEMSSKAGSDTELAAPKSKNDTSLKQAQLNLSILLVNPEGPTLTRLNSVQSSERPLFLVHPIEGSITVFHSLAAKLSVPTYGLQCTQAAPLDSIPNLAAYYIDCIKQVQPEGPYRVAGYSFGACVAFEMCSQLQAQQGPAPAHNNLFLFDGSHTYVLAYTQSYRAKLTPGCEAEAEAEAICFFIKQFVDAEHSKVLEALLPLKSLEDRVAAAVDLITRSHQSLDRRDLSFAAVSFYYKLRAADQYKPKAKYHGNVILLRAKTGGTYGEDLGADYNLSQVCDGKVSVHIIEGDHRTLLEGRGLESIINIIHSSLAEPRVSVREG
Fatty acid synthase (Rattus norvegicus), sequence (P12785 whole entry): as above

With `CCCCCCCCCCC[C@H]1SC(=O)c2ccccc2[C@@H]1C(=O)O` (relative stereo), the inhibition in data set [1] was 95.7%. The selectivity ratio in the data set on fatty acid synthase [2] came out at 2.67. Also, the CC50 in data set [3] is 9.67 µM. The same compound yielded an IC50 against Fatty acid synthase [4] of 3.62 µM.

Turning to `CCCCCC[C@H]1SC(=O)c2ccccc2[C@@H]1C(=O)O` (relative stereo), the inhibition in data set [1] was determined as 40.4%. In addition, in data set [3], the CC50 is greater than 200 µM. Also, the IC50 against Fatty acid synthase [4] was determined as 36.7 µM.

`CCCCCCCCCC1SC(=O)c2ccccc2[C@@H]1C(=O)O` (stereo not given in full): the inhibition in data set [1] came to 77.5%. The selectivity ratio with fatty acid synthase [2] came to 10.7. The CC50 in data set [3] amounted to 88.6 µM. Besides, on Fatty acid synthase [4], the IC50 was found to be 8.29 µM.

The compound `CCCCCCCC[C@H]1SC(=O)c2ccccc2[C@@H]1C(=O)O` (relative stereo) displayed an inhibition in data set [1] of 50.9%. Further, in the data set on fatty acid synthase [2], the selectivity ratio came out at 6.83. For the same compound, in data set [3], the CC50 came out at 84.2 µM. Also, the IC50 at Fatty acid synthase [4] is 12.3 µM.

With `C=C1C(=O)O[C@H](CCCCCCCC)[C@H]1C(=O)O` (relative stereo), in the data set on fatty acid synthase [2], the selectivity ratio stood at 5.61. Besides, the CC50 in data set [3] was 87.1 µM. At Fatty acid synthase [4], this compound had an IC50 of 15.5 µM.

As for `CCCCCCCCCC[C@H]1SC(=O)c2ccccc2[C@@H]1C(=O)O` (relative stereo), the inhibition in data set [1] came out at 90.2%. Besides, the selectivity ratio in the data set with fatty acid synthase [2] came to 2.92. Besides, the CC50 in data set [3] was 12 µM. Half-maximal inhibition on Fatty acid synthase [4] (IC50) required 4.11 µM.

In the case of `CCCCCCC[C@H]1SC(=O)c2ccccc2[C@@H]1C(=O)O` (relative stereo), the inhibition in data set [1] is 43.1%. In addition, the CC50 in data set [3] was greater than 200 µM. Besides, the IC50 against Fatty acid synthase [4] was 26.9 µM.

By inhibition is commonly meant the drop in the measured response relative to a control, in per cent. What is called IC50 is the concentration at which inhibition is half-maximal. A lower IC50 goes with higher potency.
